Source: ChEMBL document CHEMBL3046562, “Pharmacological Effects of Imidacloprid and Its Related Compounds on the Nicotinic Acetyicholine Receptor with Its Ion Channel from the Torpedo Electric Organ” (J Pestic Sci, 1995)
Active and inactive are the calls of the source. No cut-off for these calls is given here.

Experiments:
[1] = biological target: Acetylcholine receptor subunit alpha (Torpedo californica) (UniProt P02710); experiment: Displacement of [3H]alpha-BGT from nAChR in Torpedo nobiliana electric organs membranes at 1000 uM by scintillation counting method; format: tissue-based; settings: Electric organ
Sequence of Acetylcholine receptor subunit alpha (Torpedo californica) (P02710 whole entry): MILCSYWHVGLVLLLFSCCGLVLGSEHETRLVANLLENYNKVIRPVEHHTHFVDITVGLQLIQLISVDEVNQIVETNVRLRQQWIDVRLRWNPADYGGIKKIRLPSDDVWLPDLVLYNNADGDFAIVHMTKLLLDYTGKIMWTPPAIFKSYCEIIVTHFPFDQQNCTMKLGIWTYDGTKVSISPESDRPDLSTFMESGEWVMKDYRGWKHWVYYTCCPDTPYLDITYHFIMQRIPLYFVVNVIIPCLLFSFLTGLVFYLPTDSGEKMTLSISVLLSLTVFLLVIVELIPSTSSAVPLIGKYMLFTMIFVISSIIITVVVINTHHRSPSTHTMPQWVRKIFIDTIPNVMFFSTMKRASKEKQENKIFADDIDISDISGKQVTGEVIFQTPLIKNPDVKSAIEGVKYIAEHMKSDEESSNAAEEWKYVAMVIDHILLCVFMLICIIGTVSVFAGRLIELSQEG

[2] = biological target: Acetylcholine receptor subunit alpha (Torpedo californica) (UniProt P02710); experiment: Displacement of [3H]PCP from nAChR in Torpedo nobiliana electric organs membranes assessed as [3H]PCP binding level at 500 uM by scintillation counting method relative to untreated control; format: tissue-based; settings: Electric organ
[3] = biological target: Acetylcholine receptor subunit alpha (Torpedo californica) (UniProt P02710); experiment: Displacement of [3H]alpha-BGT from nAChR in Torpedo nobiliana electric organs membranes at 300 uM by scintillation counting method; format: tissue-based; settings: Electric organ
[4] = biological target: Acetylcholine receptor subunit alpha (Torpedo californica) (UniProt P02710); experiment: Displacement of [3H]PCP from nAChR in Torpedo nobiliana electric organs membranes assessed as [3H]PCP binding level at 500 uM in presence of 100 uM carbachol by scintillation counting method relative to untreated control; format: tissue-based; settings: Electric organ
[5] = biological target: Acetylcholine receptor subunit alpha (Torpedo californica) (UniProt P02710); experiment: Displacement of [3H]PCP from nAChR in Torpedo nobiliana electric organs membranes at 300 uM by scintillation counting method; format: tissue-based; settings: Electric organ
[6] = biological target: Acetylcholine receptor subunit alpha (Torpedo californica) (UniProt P02710); experiment: Displacement of [3H]PCP from nAChR in Torpedo nobiliana electric organs membranes at 1000 uM by scintillation counting method; format: tissue-based; settings: Electric organ
[7] = biological target: Acetylcholine receptor subunit alpha (Torpedo californica) (UniProt P02710); experiment: Increase in [3H]PCP binding to nAChR in Torpedo nobiliana electric organs membranes by scintillation counting method; format: tissue-based; settings: Electric organ
[8] = Displacement of [3H]alpha-BGT from nAChR in Torpedo nobiliana electric organs membranes by scintillation counting method
[9] = biological target: Acetylcholine receptor subunit alpha (Torpedo californica) (UniProt P02710); experiment: Displacement of [3H]PCP from nAChR in Torpedo nobiliana electric organs membranes assessed as [3H]PCP binding level at 300 uM in presence of 100 uM carbachol by scintillation counting method relative to untreated control; format: tissue-based; settings: Electric organ
[10] = biological target: Acetylcholine receptor subunit alpha (Torpedo californica) (UniProt P02710); experiment: Displacement of [3H]PCP from nAChR in Torpedo nobiliana electric organs membranes assessed as [3H]PCP binding level at 300 uM pre-treated with 0.5 uM alpha-bungarotoxin by scintillation counting method relative to untreated control; format: tissue-based; settings: Electric organ
[11] = biological target: Acetylcholine receptor subunit alpha (Torpedo californica) (UniProt P02710); experiment: Displacement of [3H]PCP from nAChR in Torpedo nobiliana electric organs membranes assessed as [3H]PCP binding level at 300 uM by scintillation counting method relative to untreated control; format: tissue-based; settings: Electric organ
[12] = biological target: Acetylcholine receptor subunit alpha (Torpedo californica) (UniProt P02710); experiment: Increase in [3H]PCP binding to nAChR in Torpedo nobiliana electric organs membranes at 1 to 3 uM by scintillation counting method; format: tissue-based; settings: Electric organ
[13] = biological target: Acetylcholine receptor subunit alpha (Torpedo californica) (UniProt P02710); experiment: Displacement of [3H]PCP from nAChR in Torpedo nobiliana electric organs membranes assessed as [3H]PCP binding level at 1000 uM pre-treated with 0.5 uM alpha-bungarotoxin by scintillation counting method relative to untreated control; format: tissue-based; settings: Electric organ
[14] = biological target: Acetylcholine receptor subunit alpha (Torpedo californica) (UniProt P02710); experiment: Displacement of [3H]PCP from nAChR in Torpedo nobiliana electric organs membranes assessed as [3H]PCP binding level at 1000 uM in presence of 100 uM carbachol by scintillation counting method relative to untreated control; format: tissue-based; settings: Electric organ
[15] = biological target: Acetylcholine receptor subunit alpha (Torpedo californica) (UniProt P02710); experiment: Displacement of [3H]PCP from nAChR in Torpedo nobiliana electric organs membranes assessed as [3H]PCP binding level at 1000 uM by scintillation counting method relative to untreated control; format: tissue-based; settings: Electric organ

CN1[C@@H](CC(=O)c2ccccc2)CCC[C@H]1C[C@H](O)c1ccccc1
inhibition [1]: 0%

CCN(Cc1ccc(Cl)nc1)/C(=C/[N+](=O)[O-])NC
Activity [2]: 142% | inhibition [3]: 2.39% | Activity [4]: 607%

O=C1N(Cc2ccccc2)C2C[S+]3CCCC3C2N1Cc1ccccc1 (configuration not stated)
inhibition [5]: 5.93% | inhibition [3]: 5.7% | inhibition [6]: 59.5%

CN(C)C1CSSC1
Activity [7]: Active

CNC1(c2ccccc2Cl)CCCCC1=O (configuration not stated)
inhibition [1]: 0.1%

O=c1cccc2n1C[C@@H]1CNC[C@H]2C1
Activity [7]: Active

CN1CCC[C@@H]1c1cccnc1
Activity [7]: Active

CCC[C@H]1CCCCN1
Activity [7]: Active

c1cncc([C@@H]2CCCCN2)c1 [ANABASINE]
IC50 [8]: 193 µM | Activity [7]: Active

c1ccc(C2(N3CCCCC3)CCCCC2)cc1
inhibition [1]: 3.2%

C[N+]1(C)CCN(c2ccccc2)CC1
Activity [7]: Active

O=[N+]([O-])/N=C1\NCCN1Cc1ccc(Cl)nc1 [IMIDACLOPRID]
Activity [9]: 92.4% | IC50 [8]: 1060 µM | Activity [10]: 108% | Activity [11]: 287%

C/C(=N\C#N)N(C)Cc1ccc(Cl)nc1
Activity [9]: 93.3% | Activity [10]: 104% | Activity [11]: 221%

CN1CCC[C@H]1c1cccnc1 [NICOTINE]
IC50 [8]: 23.1 µM | Activity [7]: Active

COc1cc2c3cc1Oc1cc(ccc1O)C[C@@H]1c4c(cc(OC)c(O)c4Oc4ccc(cc4)C[C@@H]3N(C)CC2)CC[N+]1(C)C
inhibition [5]: 91.3% | Activity [12]: 160% | Activity [7]: Active

O=[N+]([O-])/C=C1\NCCN1Cc1ccc(Cl)nc1
Activity [9]: 94.6% | Activity [10]: 142% | Activity [11]: 461%

CN(C)CCCN1c2ccccc2Sc2ccc(Cl)cc21
inhibition [1]: 7.15%

CNC1(C)C2CCC(C2)C1(C)C (configuration not stated)
inhibition [1]: 0%

CSCCN1CCN/C1=C\[N+](=O)[O-]
Activity [9]: 830% | Activity [11]: 181%

C[N+](C)(C)CCOC(N)=O [CARBACHOL]
IC50 [8]: 7.64 µM | Activity [7]: Active

O=[N+]([O-])C=C1NCCCS1
IC50 [8]: 1590 µM | Activity [13]: 112% | Activity [14]: 762% | Activity [15]: 439%

c1csc(C2(N3CCCCC3)CCCCC2)c1
inhibition [3]: 0.91%
